Tests used:
ARAF/MEK protein complex = ARAF/MEK protein complex (Homo sapiens, UniProt P10398+Q02750); test: Mass spectrometry-based assay for covalent labeling of ARAF; type: binding; details: ARAF/MEK protein complex incubated at room temperature for 2 hours with inhibitor at concentration ratio 1:10; LC-MS of denatured protein
Description: Covalent labeling of ARAF by compounds of the invention was measured using a mass spectrometry-based assay. The ARAF/MEK protein complex was incubated at room temperature for 2 hours with desired inhibitors at a concentration ratio of 1:10. Following incubation, proteins were denatured in 8 M urea. Formic acid was added to a final 1% and desalted over C4 resin prior to LCMS analysis. Denatured proteins (10 μg per sample) were analyzed by LC-MS via a U3000 RSLC coupled to an Orbitrap Eclipse mass spectrometer (Thermo Scientific, Waltham, MA, USA). Proteins were eluted off a ES811A (Thermo Scientific, Waltham, MA, USA) 15-cm C4 column with a 5-50% gradient of MeCN in 1% FA. MS scans (range=600-2000 m/z) were obtained in the orbitrap at 120,000 resolution with 4 microscans. The Xtract function in Freestyle software (Thermo Scientific, Waltham, MA, USA) was used to deconvolute charge states averaged across the elution window. Fractional labeling of ARAF was measured by quantitating the unlabeled ARAF and ARAF shifted by the mass expected for formation of a covalent adduct of ARAF with the compound of interest.

[1] = biological target: T1, ARAF/14-3-3 chimera (residues 274-606 of human ARAF fused to human 14-3-3 epsilon) (Homo sapiens, UniProt P10398+Q02750, D190N/G300S/Y301D/Y302D); test: TR-FRET-based kinase assay: inhibition of phosphorylation of MEK1 by ARAF; type: biochemical; details: 250 nM MEK1(D190N), 75 nM ARAF/14-3-3 chimera, 30 minutes incubation with inhibitor, 200 μM ATP, 1 hour, HTRF
T1 construct: residues 274-606 of human ARAF, including the kinase domain and complete C-terminal region; made in house; host or cells: Sf9 insect cells (baculovirus)
Description: The ability of compounds of the invention to inhibit phosphorylation of MEK by ARAF was measured in a TR-FRET-based kinase assay using purified ARAF and MEK proteins. An active, chimeric ARAF protein was employed for this study. This ARAF protein included residues 274-606 of human ARAF, including the kinase domain and complete C-terminal region, fused to human 14-3-3 epsilon (ARAF/14-3-3 chimera). Amino acids corresponding to residues […] of human ARAF (with the sequence Ser-Gly-Tyr-Tyr) were mutated to Ser-Ser-Asp-Asp in this ARAF/14-3-3 chimera. […] In this assay, the ability of compounds of interest to inhibit phosphorylation of MEK1 by ARAF was measured by incubating 250 nM unphosphorylated full-length MEK1(D190N) with 75 nM ARAF/14-3-3 chimera and inhibitor of interest at a series of 12 concentrations (from 10 μM to 1.3 nM) for 30 minutes in reaction buffer (50 mM HEPES pH 7.0, 5 mM MgCl2, 1 mM MnCl2, 0.01% BSA, 2 mM TCEP, 0.1 mM NaVO4) at room temperature. Reactions were initiated by addition of 200 μM ATP and allowed to proceed for 1 hour. Reactions were quenched using detection buffer from HTRF-KinEASE kit (Cisbio). Signal was read with a PHERAstar plate reader (excitation=337 nm, emission=620 nm and 665 nm). IC50 values were determined using Graphpad Prism software from the 12 point concentration-response data using a three-parameter dose-response fit with the Hill slope constrained to −1.

T1 sequence (P10398 274-606 G300S/Y301D/Y302D limits assumed): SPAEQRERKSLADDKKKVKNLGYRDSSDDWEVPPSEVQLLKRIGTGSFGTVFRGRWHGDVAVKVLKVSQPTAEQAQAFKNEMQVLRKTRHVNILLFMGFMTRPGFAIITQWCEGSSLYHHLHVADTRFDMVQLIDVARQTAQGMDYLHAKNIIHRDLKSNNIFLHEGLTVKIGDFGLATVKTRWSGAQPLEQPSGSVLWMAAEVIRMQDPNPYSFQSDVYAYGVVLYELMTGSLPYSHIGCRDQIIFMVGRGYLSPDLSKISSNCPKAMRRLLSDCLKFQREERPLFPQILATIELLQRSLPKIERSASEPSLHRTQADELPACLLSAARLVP
T1 sequence (Q02750 whole entry D190N, the tested form may be a part): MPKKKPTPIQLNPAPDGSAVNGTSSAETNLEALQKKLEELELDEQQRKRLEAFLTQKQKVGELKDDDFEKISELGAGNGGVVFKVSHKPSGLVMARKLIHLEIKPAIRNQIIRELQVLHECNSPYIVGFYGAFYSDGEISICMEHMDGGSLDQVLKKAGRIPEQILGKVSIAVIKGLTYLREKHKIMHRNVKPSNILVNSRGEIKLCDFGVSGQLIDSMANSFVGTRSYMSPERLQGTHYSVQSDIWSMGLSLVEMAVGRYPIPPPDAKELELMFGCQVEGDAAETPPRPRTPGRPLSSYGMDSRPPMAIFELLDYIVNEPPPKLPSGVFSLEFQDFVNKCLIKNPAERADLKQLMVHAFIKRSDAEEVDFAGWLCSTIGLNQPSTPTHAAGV
ARAF/MEK protein complex, sequence (P10398 whole entry): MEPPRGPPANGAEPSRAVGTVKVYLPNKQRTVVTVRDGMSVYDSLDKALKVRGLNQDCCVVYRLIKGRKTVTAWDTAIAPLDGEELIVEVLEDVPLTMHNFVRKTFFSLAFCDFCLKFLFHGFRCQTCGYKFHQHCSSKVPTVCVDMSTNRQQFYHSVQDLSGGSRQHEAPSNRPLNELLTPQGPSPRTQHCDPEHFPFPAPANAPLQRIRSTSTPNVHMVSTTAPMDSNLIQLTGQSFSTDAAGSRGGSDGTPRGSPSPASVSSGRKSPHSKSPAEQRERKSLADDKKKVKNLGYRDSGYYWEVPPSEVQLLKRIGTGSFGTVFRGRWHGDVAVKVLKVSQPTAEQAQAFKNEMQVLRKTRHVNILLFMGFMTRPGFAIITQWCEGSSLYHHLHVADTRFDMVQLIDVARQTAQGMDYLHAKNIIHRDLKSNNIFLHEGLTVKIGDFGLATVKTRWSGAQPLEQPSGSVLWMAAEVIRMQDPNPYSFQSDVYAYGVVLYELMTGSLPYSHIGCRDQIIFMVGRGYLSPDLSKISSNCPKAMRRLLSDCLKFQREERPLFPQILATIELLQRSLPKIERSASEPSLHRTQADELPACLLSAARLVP
ARAF/MEK protein complex, sequence (Q02750 whole entry): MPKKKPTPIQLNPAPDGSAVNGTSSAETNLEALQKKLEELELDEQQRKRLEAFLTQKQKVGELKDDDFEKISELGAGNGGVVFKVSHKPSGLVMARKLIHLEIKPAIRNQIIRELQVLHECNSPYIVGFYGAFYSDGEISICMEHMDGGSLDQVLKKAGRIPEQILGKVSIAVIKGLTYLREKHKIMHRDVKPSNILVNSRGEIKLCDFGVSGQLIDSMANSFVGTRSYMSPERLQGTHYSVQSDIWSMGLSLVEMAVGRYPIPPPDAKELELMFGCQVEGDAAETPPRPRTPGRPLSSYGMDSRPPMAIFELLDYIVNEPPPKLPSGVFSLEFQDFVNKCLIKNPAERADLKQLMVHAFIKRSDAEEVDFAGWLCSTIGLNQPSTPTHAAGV

| % labeling (covalent labeling of ARAF) (ARAF/MEK protein complex) [%] | IC50 [1] [nM] | Compound |
| --- | --- | --- |
| 40 | – | O=C(CCl)Nc1ccc(CNC(=O)c2ccc(F)c(F)c2Nc2ccc(I)cc2F)cc1 [Example 6, N-(4-(2-Chloroacetamido)benzyl)-3,4-difluoro-2-((2-fluoro-4-iodophenyl)amino)benzamide] |
| 0 | – | C=CC(=O)Nc1ccc(Cn2cnc3c(F)c(Nc4ccc(Br)cc4Cl)c(C(=O)OC)cc32)cc1 [Example 9, Methyl 1-(4-acrylamidobenzyl)-5-((4-bromo-2-chlorophenyl)amino)-4-fluoro-1H-benzo[d]imidazole-6-carboxylate] |
| 100 | 60 | Cc1c(Cc2cccc(NC(=O)CCl)c2F)c(=O)oc2cc(Oc3ncccn3)ccc12 [Example 4, 2-Chloro-N-(2-fluoro-3-((4-methyl-2-oxo-7-(pyrimidin-2-yloxy)-2H-chromen-3-yl)methyl)phenyl)acetamide] |
| 100 | 210 | C=C(F)C(=O)Nc1cccc(-n2c(=O)n(C3CC3)c(=O)c3c(Nc4ccc(I)cc4F)n(C)c(=O)c(C)c32)c1 [Example 12, N-(3-(3-Cyclopropyl-5-((2-fluoro-4-iodophenyl)amino)-6,8-dimethyl-2,4,7-trioxo-3,4,6,7-tetrahydropyrido[4,3-d]pyrimidin-1(2H)-yl)phenyl)-2-fluoroacrylamide] |
| 40 | – | Cn1cnc2c(F)c(Nc3ccc(Br)cc3Cl)c(C(=O)NCc3ccc(NC(=O)CCl)cc3)cc21 [Example 8, 5-((4-Bromo-2-chlorophenyl)amino)-N-(4-(2-chloroacetamido)benzyl)-4-fluoro-1-methyl-1H-benzo[d]imidazole-6-carboxamide] |
| 10 | – | C=CC(=O)Nc1ccc(CNC(=O)c2ccc(F)c(F)c2Nc2ccc(I)cc2F)cc1 [Example 5, N-(4-Acrylamidobenzyl)-3,4-difluoro-2-((2-fluoro-4-iodophenyl)amino)benzamide] |
| 85 | 130 | C=CC(=O)Nc1cccc(Cc2c(C)c3ccc(Oc4ncccn4)cc3oc2=O)c1F [Example 3, N-(2-Fluoro-3-((4-methyl-2-oxo-7-(pyrimidin-2-yloxy)-2H-chromen-3-yl)methyl)phenyl)acrylamide] |
| 50 | – | Cc1c(Cc2ccc(NC(=O)CCl)cc2F)c(=O)oc2cc(Oc3ncccn3)ccc12 [Example 2, 2-Chloro-N-(3-fluoro-4-((4-methyl-2-oxo-7-(pyrimidin-2-yloxy)-2H-chromen-3-yl)methyl)phenyl)acetamide] |
| 75 | – | COC(=O)c1cc2c(ncn2Cc2ccc(NC(=O)CCl)cc2)c(F)c1Nc1ccc(Br)cc1Cl [Example 10, Methyl 5-((4-bromo-2-chlorophenyl)amino)-1-(4-(2-chloroacetamido)benzyl)-4-fluoro-1H-benzo[d]imidazole-6-carboxylate] |
| 0 | – | C=CC(=O)Nc1ccc(CNC(=O)c2cc3c(ncn3C)c(F)c2Nc2ccc(Br)cc2Cl)cc1 [Example 7, N-(4-Acrylamidobenzyl)-5-((4-bromo-2-chlorophenyl)amino)-4-fluoro-1-methyl-1H-benzo[d]imidazole-6-carboxamide] |

| Compound | % labeling (covalent labeling of ARAF) (ARAF/MEK protein complex) [%] | IC50 [1] [nM] |
| --- | --- | --- |
| Cc1c(=O)n(C)c(Nc2ccc(I)cc2F)c2c(=O)n(C3CC3)c(=O)n(-c3cccc(NC(=O)CCl)c3)c12 [Example 11, 2-Chloro-N-(3-(3-cyclopropyl-5-((2-fluoro-4-iodophenyl)amino)-6,8-dimethyl-2,4,7-trioxo-3,4,6,7-tetrahydropyrido[4,3-d]pyrimidin-1(2H)-yl)phenyl)acetamide] | 100 | 490 |

Reference: US20260125376A1, “IRREVERSIBLE INACTIVATORS TARGETING ARAF/MEK COMPLEXES” (Dana-Farber Cancer Institute, Inc., priority 2022, published 2026)
